This is an account of results in US20090016990A1, “Antimicrobial Compositions” (priority 2007, published 2009).

Assay [1] has as its system Pseudomonas aeruginosa ATCC 27853. Nature of the assay: MIC assay, planktonic growth, MBEC bioFILM PA panel. The note with it: antibiotics become less effective.
Procedure: The MBEC bioFILM PA panel is designed for use in determining antimicrobial agent susceptibility of both planktonic and biofilm Pseudomonas aeruginosa.
From this test, the minimum antibiotic concentration—in the presence and absence of a compound of the present invention—that will inhibit bacterial growth in solution (“MIC Assay”) is determined. The minimum antibiotic concentration—in the presence and absence of a compound of the present invention—that will prevent attachment of bacteria to a test surface (“MBEC Assay”) is determined. Approximately 1,000,000-10,000,000 bacteria attach in the absence of antibiotics; lesser numbers attach in the presence of antibiotics.
MBEC bioFilm PA panel—Panel wells are inoculated with planktonic Pseudomonas aeruginosa using a 95 peg inoculation lid. Panels and pegged lids are then incubated at 35° C. for 18 h. Planktonic susceptibility and resistance is determined by measuring inhibition and growth in the presence of antimicrobial agents after incubation. Biofilm susceptibility and resistance is determined by measuring inhibition and growth after peg sonication, biofilm bacteria recovery, then incubation for additional 18-24 h at 35° C.
For assay [2] the test system is unchanged. Nature of the assay: MBEC assay, biofilm inhibition (prevention of biofilm formation), MBEC bioFILM PA panel. To be noted: for MBEC-Biofilm Inhibition, without salt of compound 2 / MBEC-Biofilm Inhibition, with 0.1% salt of compound 2: Table 9; for MBEC-Biofilm Inhibition, without salt of compound 2 / MBEC-Biofilm Inhibition, without salt of compound 6: antibiotic or antibiotic combination alone; for MBEC-Biofilm Inhibition, without salt of compound 2 / MBEC-Biofilm Inhibition, with 0.1% salt of compound 2 / MBEC-Biofilm Inhibition, without salt of compound 6 / MBEC-Biofilm Inhibition, with 0.1% salt of compound 6: value per component; for MBEC-Biofilm Inhibition, without salt of compound 2: separated by /; for MBEC-Biofilm Inhibition, with 0.1% salt of compound 2: antibiotic or combination plus 0.1% salt of compound 2; for MBEC-Biofilm Inhibition, without salt of compound 6 / MBEC-Biofilm Inhibition, with 0.1% salt of compound 6: Table 10; for MBEC-Biofilm Inhibition, with 0.1% salt of compound 6: antibiotic or combination plus 0.1% salt of compound 6; for MBEC-Biofilm Inhibition, Without compound 1 / MBEC-Biofilm Inhibition, Without compound 2 / MBEC-Biofilm Inhibition, Without compound 3 / MBEC-Biofilm Inhibition, Without compound 6 / MBEC-Biofilm Inhibition, Without compound 7 / MBEC-Biofilm Inhibition, Without compound 9: antibiotic alone. Type of assay: cell-based. On the set-up: MBEC-Biofilm Inhibition, Without compound 9 / MBEC-Biofilm Inhibition, Without compound 6 / MBEC-Biofilm Inhibition, Without compound 2 / MBEC-Biofilm Inhibition, Without compound 7 / MBEC-Biofilm Inhibition, With 0.01% compound 7 in 5% EtOH/PBS / MBEC-Biofilm Inhibition, without salt of compound 2 / MBEC-Biofilm Inhibition, with 0.1% salt of compound 2 / MBEC-Biofilm Inhibition, without salt of compound 6: unit not given here.

Assay [3] has the same test system. Nature of the assay: MBEC assay, biofilm elimination, MBEC bioFILM PA panel. On the set-up: MBEC-Biofilm Elimination, Without compound 2 / MBEC-Biofilm Elimination, With 0.01% compound 2 in 5% EtOH/PBS / MBEC-Biofilm Elimination, Without compound 7 / MBEC-Biofilm Elimination, With 0.01% compound 7 in 5% EtOH/PBS / MBEC-Biofilm Elimination, Without compound 1 / MBEC-Biofilm Elimination, With 0.01% compound 1 in 5% EtOH/PBS / MBEC-Biofilm Elimination, without salt of compound 2 / MBEC-Biofilm Elimination, with 0.1% salt of compound 2: unit not given here. The note with it: for MBEC-Biofilm Elimination, without salt of compound 2 / MBEC-Biofilm Elimination, with 0.1% salt of compound 2: Table 9; for MBEC-Biofilm Elimination, without salt of compound 2 / MBEC-Biofilm Elimination, without salt of compound 6: antibiotic or antibiotic combination alone; for MBEC-Biofilm Elimination, without salt of compound 2 / MBEC-Biofilm Elimination, with 0.1% salt of compound 2 / MBEC-Biofilm Elimination, without salt of compound 6 / MBEC-Biofilm Elimination, with 0.1% salt of compound 6: value per component; for MBEC-Biofilm Elimination, with 0.1% salt of compound 2: antibiotic or combination plus 0.1% salt of compound 2; for MBEC-Biofilm Elimination, without salt of compound 6 / MBEC-Biofilm Elimination, with 0.1% salt of compound 6: Table 10; for MBEC-Biofilm Elimination, with 0.1% salt of compound 6: antibiotic or combination plus 0.1% salt of compound 6; for MBEC-Biofilm Elimination, Without compound 1 / MBEC-Biofilm Elimination, Without compound 2 / MBEC-Biofilm Elimination, Without compound 3 / MBEC-Biofilm Elimination, Without compound 6 / MBEC-Biofilm Elimination, Without compound 7 / MBEC-Biofilm Elimination, Without compound 9: antibiotic alone. Type of assay: cell-based.

As for `CC(C)(C)c1ccc(OS(=O)(=O)Cl)cc1` [compound 9], the “MIC values of antibiotics in the presence of the compound” value in assay [1] is “increased”.
As for colistin [CT], in assay [2], the “MBEC-Biofilm Inhibition, without salt of compound 2” value is recorded as over 1; the “MBEC-Biofilm Inhibition, with 0.1% salt of compound 2” value is on record as over 1; the “MBEC-Biofilm Inhibition, without salt of compound 6” value is reported as over 1; the “MBEC-Biofilm Inhibition, with 0.1% salt of compound 6” value is on record as over 1. For the same compound, in assay [2], the “MBEC-Biofilm Inhibition, Without compound 1” value was over 1; the “MBEC-Biofilm Inhibition, Without compound 2” value is over 1; the “MBEC-Biofilm Inhibition, Without compound 3” value was over 1; the “MBEC-Biofilm Inhibition, Without compound 6” value is reported as over 1. For the same compound, in assay [2], the “MBEC-Biofilm Inhibition, Without compound 7” value is over 1; the “MBEC-Biofilm Inhibition, Without compound 9” value was over 1; the “MBEC-Biofilm Inhibition, With 0.01% compound 1 in 5% EtOH/PBS” value is given as over 1; the “MBEC-Biofilm Inhibition, With 0.01% compound 2 in 5% EtOH/PBS” value was over 1. For the same compound, in assay [2], the “MBEC-Biofilm Inhibition, With 0.01% compound 7 in 5% EtOH/PBS” value is given as over 1; the “MBEC-Biofilm Inhibition, With 0.05% compound 3 in 5% EtOH/PBS” value is over 1; the “MBEC-Biofilm Inhibition, With 0.05% compound 6 in 5% EtOH/PBS” value was over 1; the “MBEC-Biofilm Inhibition, With 0.1% w/v compound 9 in PBS” value is over 1. In addition, in assay [3], the “MBEC-Biofilm Elimination, without salt of compound 2” value is on record as over 1; the “MBEC-Biofilm Elimination, with 0.1% salt of compound 2” value was over 1; the “MBEC-Biofilm Elimination, without salt of compound 6” value was over 1; the “MBEC-Biofilm Elimination, with 0.1% salt of compound 6” value is reported as over 1. In addition, in assay [3], the “MBEC-Biofilm Elimination, Without compound 1” value is over 1; the “MBEC-Biofilm Elimination, Without compound 2” value is reported as over 1; the “MBEC-Biofilm Elimination, Without compound 3” value is listed as over 1; the “MBEC-Biofilm Elimination, Without compound 6” value is given as over 1. For the same compound, in assay [3], the “MBEC-Biofilm Elimination, Without compound 7” value is on record as over 1; the “MBEC-Biofilm Elimination, Without compound 9” value is listed as over 1; the “MBEC-Biofilm Elimination, With 0.01% compound 1 in 5% EtOH/PBS” value is 1; the “MBEC-Biofilm Elimination, With 0.01% compound 2 in 5% EtOH/PBS” value came out at 0.5. Further, in assay [3], the “MBEC-Biofilm Elimination, With 0.01% compound 7 in 5% EtOH/PBS” value is listed as 1; the “MBEC-Biofilm Elimination, With 0.05% compound 3 in 5% EtOH/PBS” value was over 1; the “MBEC-Biofilm Elimination, With 0.05% compound 6 in 5% EtOH/PBS” value was over 1; the “MBEC-Biofilm Elimination, With 0.1% w/v compound 9 in PBS” value is recorded as over 1.
Regarding gentamicin [GM], in assay [2], the “MBEC-Biofilm Inhibition, without salt of compound 2” value is listed as over 2; the “MBEC-Biofilm Inhibition, with 0.1% salt of compound 2” value is over 2; the “MBEC-Biofilm Inhibition, without salt of compound 6” value is recorded as over 2; the “MBEC-Biofilm Inhibition, with 0.1% salt of compound 6” value is recorded as over 2. In assay [2], the “MBEC-Biofilm Inhibition, Without compound 1” value is reported as over 2; the “MBEC-Biofilm Inhibition, Without compound 2” value was over 2; the “MBEC-Biofilm Inhibition, Without compound 3” value was over 2; the “MBEC-Biofilm Inhibition, Without compound 6” value was over 2. In addition, in assay [2], the “MBEC-Biofilm Inhibition, Without compound 7” value was over 2; the “MBEC-Biofilm Inhibition, Without compound 9” value was over 2; the “MBEC-Biofilm Inhibition, With 0.01% compound 1 in 5% EtOH/PBS” value is over 2; the “MBEC-Biofilm Inhibition, With 0.01% compound 2 in 5% EtOH/PBS” value is over 2. Further, in assay [2], the “MBEC-Biofilm Inhibition, With 0.01% compound 7 in 5% EtOH/PBS” value is over 2; the “MBEC-Biofilm Inhibition, With 0.05% compound 3 in 5% EtOH/PBS” value is given as over 2; the “MBEC-Biofilm Inhibition, With 0.05% compound 6 in 5% EtOH/PBS” value is reported as over 2; the “MBEC-Biofilm Inhibition, With 0.1% w/v compound 9 in PBS” value is recorded as over 2. In addition, in assay [3], the “MBEC-Biofilm Elimination, without salt of compound 2” value is over 2; the “MBEC-Biofilm Elimination, with 0.1% salt of compound 2” value was over 2; the “MBEC-Biofilm Elimination, without salt of compound 6” value is over 2; the “MBEC-Biofilm Elimination, with 0.1% salt of compound 6” value is on record as over 2. In assay [3], the “MBEC-Biofilm Elimination, Without compound 1” value was over 2; the “MBEC-Biofilm Elimination, Without compound 2” value is over 2; the “MBEC-Biofilm Elimination, Without compound 3” value was over 2; the “MBEC-Biofilm Elimination, Without compound 6” value is over 2. Besides, in assay [3], the “MBEC-Biofilm Elimination, Without compound 7” value is over 2; the “MBEC-Biofilm Elimination, Without compound 9” value is recorded as 2; the “MBEC-Biofilm Elimination, With 0.01% compound 1 in 5% EtOH/PBS” value was 2; the “MBEC-Biofilm Elimination, With 0.01% compound 2 in 5% EtOH/PBS” value is given as over 2. In assay [3], the “MBEC-Biofilm Elimination, With 0.01% compound 7 in 5% EtOH/PBS” value worked out at 2; the “MBEC-Biofilm Elimination, With 0.05% compound 3 in 5% EtOH/PBS” value is over 2; the “MBEC-Biofilm Elimination, With 0.05% compound 6 in 5% EtOH/PBS” value is reported as over 2; the “MBEC-Biofilm Elimination, With 0.1% w/v compound 9 in PBS” value is over 2.
